Reference: PubChem BioAssay AID248 (DTP/NCI, 2004)
Values joined by “and” are separate entries in the source; they are usually repeats but may differ in a detail not shown here. Equal entries are not always repeated. Inconclusive results and toxic doses are left out. Cut-off read from the data, not from the text of the source: active = T/C of 150% or more; inactive = T/C below 125%.

Test system: L1210 leukemia ip in BDF1 mice, survival T/C
Experiment: NCI In Vivo Anticancer Drug Screen. Data for tumor model L1210 Leukemia (intraperitoneal) in B6D2F1 (BDF1) mice
Details: endpoint: mean survival time, higher = longer survival
Outline: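 Survival endpoint. Drug-treated group vs vehicle group, expressed as T divided by C. Tumor passaged by transplantation.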

[1] = dose: 75.0 mg/kg/injection, schedule: Q01DX001 (ip), vehicle: other
[2] = dose: 100.0 mg/kg/injection, schedule: Q01DX009 (ip), vehicle: Klucel (hydroxypropylcellulose) (HPC)
[3] = dose: 100.0 mg/kg/injection, schedule: Q01DX009 (ip), vehicle: saline
[4] = dose: 100.0 mg/kg/injection, schedule: Q04DX002 (ip), vehicle: saline
[5] = dose: 200.0 mg/kg/injection, schedule: Q01DX009 (ip), vehicle: saline
[6] = dose: 200.0 mg/kg/injection, schedule: Q04DX002 (ip), vehicle: saline
[7] = dose: 100.0 mg/kg/injection, schedule: Q01DX001 (ip), vehicle: saline
[8] = dose: 200.0 mg/kg/injection, schedule: Q01DX001 (ip), vehicle: saline
[9] = dose: 400.0 mg/kg/injection, schedule: Q01DX001 (ip), vehicle: saline
[10] = dose: 75.0 mg/kg/injection, schedule: Q01DX001 (ip), vehicle: saline
[11] = dose: 150.0 mg/kg/injection, schedule: Q01DX001 (ip), vehicle: saline
[12] = dose: 100.0 mg/kg/injection, schedule: Q04DX003 (ip), vehicle: saline with Tween-80
[13] = dose: 200.0 mg/kg/injection, schedule: Q04DX003 (ip), vehicle: saline with Tween-80
[14] = dose: 400.0 mg/kg/injection, schedule: Q04DX003 (ip), vehicle: saline with Tween-80
[15] = dose: 100.0 mg/kg/injection, schedule: Q04DX003 (ip), vehicle: saline
[16] = dose: 200.0 mg/kg/injection, schedule: Q04DX003 (ip), vehicle: saline
[17] = dose: 50.0 mg/kg/injection, schedule: Q04DX003 (ip), vehicle: saline
[18] = dose: 50.0 mg/kg/injection, schedule: Q01DX001 (ip), vehicle: saline

Measured: T/C

CNC(=O)Oc1ccc(SC)c(C)c1
inactive: dose: 0.37 mg/kg/injection, schedule: Q01DX009 (ip), vehicle: Klucel (hydroxypropylcellulose) (HPC) 94 % of control | dose: 0.75 mg/kg/injection, schedule: Q01DX009 (ip), vehicle: Klucel (hydroxypropylcellulose) (HPC) 97 % of control | dose: 1.5 mg/kg/injection, schedule: Q01DX009 (ip), vehicle: Klucel (hydroxypropylcellulose) (HPC) 102 % of control and 103 % of control | dose: 5.0 mg/kg/injection, schedule: Q01DX001 (ip), vehicle: carboxymethylcellulose (CMC) 86 % of control | dose: 10.0 mg/kg/injection, schedule: Q01DX001 (ip), vehicle: carboxymethylcellulose (CMC) 94 % of control

CCCCC(CCCC)NCC(C)OC(=O)c1ccc(N)cc1 (configuration not stated)
inactive: dose: 9.5 mg/kg/injection, schedule: Q01DX001 (ip), vehicle: other 100 % of control | dose: 19.0 mg/kg/injection, schedule: Q01DX001 (ip), vehicle: other 105 % of control | dose: 38.0 mg/kg/injection, schedule: Q01DX001 (ip), vehicle: other 96 % of control | [1] 92 % of control

C=CCC(CC)C(=O)NC(=O)N1CCCc2ccccc21 (configuration not stated)
inactive: dose: 100.0 mg/kg/injection, schedule: Q01DX001 (ip), vehicle: saline with Tween-80 91 % of control | dose: 200.0 mg/kg/injection, schedule: Q01DX001 (ip), vehicle: saline with Tween-80 86 % of control

CCOC(=O)c1ccc(NCC(=O)CNc2nc(N)nc(N)c2[N+](=O)[O-])cc1
inactive: [1] 95 % of control | dose: 150.0 mg/kg/injection, schedule: Q01DX001 (ip), vehicle: other 90 % of control | dose: 300.0 mg/kg/injection, schedule: Q01DX001 (ip), vehicle: other 87 % of control

Oc1ccc(N=Cc2ccccc2)cc1
inactive: dose: 100.0 mg/kg/injection, schedule: Q04DX002 (ip), vehicle: gum acacia 98 % of control | dose: 200.0 mg/kg/injection, schedule: Q04DX002 (ip), vehicle: gum acacia 109 % of control | dose: 400.0 mg/kg/injection, schedule: Q04DX002 (ip), vehicle: gum acacia 106 % of control

O=C(Nc1cc(Cl)cc2c1-c1c(Cl)cc(Cl)cc1C2)C(Cl)Cl
inactive: dose: 50.0 mg/kg/injection, schedule: Q04DX003 (ip), vehicle: Klucel (hydroxypropylcellulose) (HPC) 100 % of control | [2] 97 % of control | dose: 100.0 mg/kg/injection, schedule: Q04DX003 (ip), vehicle: Klucel (hydroxypropylcellulose) (HPC) 92 % of control | dose: 200.0 mg/kg/injection, schedule: Q04DX003 (ip), vehicle: Klucel (hydroxypropylcellulose) (HPC) 94 % of control | dose: 400.0 mg/kg/injection, schedule: Q04DX003 (ip), vehicle: Klucel (hydroxypropylcellulose) (HPC) 100 % of control

C=CCSC(=S)SCc1cccc(Cl)c1
inactive: [3] 101 % of control | [4] 100 % of control | [5] 101 % of control | [6] 100 % of control | dose: 400.0 mg/kg/injection, schedule: Q01DX009 (ip), vehicle: saline 99 % of control | dose: 400.0 mg/kg/injection, schedule: Q04DX002 (ip), vehicle: saline 97 % of control

O=C(OC(=O)c1cccc2ccccc12)c1cccc2ccccc12
inactive: [7] 94 % of control | [8] 102 % of control | [9] 94 % of control

CCCCCCCCCCCCCC[Si](Cl)(Cl)Cl
inactive: [10] 94 % of control | [11] 92 % of control

O=C(O)c1ccccc1C(=O)c1ccccc1C(=O)O
inactive: [12] 102 % of control | [13] 98 % of control | [14] 102 % of control

O=C(O)CS(=O)(=O)c1ccccc1
inactive: [15] 95 % of control | [16] 105 % of control

COc1ccc(OC)c(/C=C/C(=O)n2cnc3c(N)ncnc32)c1
inactive: [12] 93 % of control | [13] 93 % of control | [14] 88 % of control

O=C(OCc1ccccc1CN1CCOCC1)c1ccc([N+](=O)[O-])cc1
inactive: dose: 100.0 mg/kg/injection, schedule: Q04DX002 (ip), vehicle: Klucel (hydroxypropylcellulose) (HPC) 105 % of control | dose: 200.0 mg/kg/injection, schedule: Q04DX002 (ip), vehicle: Klucel (hydroxypropylcellulose) (HPC) 98 % of control | dose: 400.0 mg/kg/injection, schedule: Q04DX002 (ip), vehicle: Klucel (hydroxypropylcellulose) (HPC) 98 % of control

CCOC(OCC)n1ncnc1NC(=S)NCc1ccccc1
inactive: [17] 100 % of control | [15] 100 % of control | [16] 97 % of control

CC(=O)[C@@]12OC(C)(C)O[C@@H]1C[C@H]1[C@@H]3C[C@H](C)C4=CC(=O)CC[C@]4(C)[C@H]3CC[C@@]12C
inactive: dose: 100.0 mg/kg/injection, schedule: Q01DX001 (ip), vehicle: steriod suspending solution 103 % of control | dose: 100.0 mg/kg/injection, schedule: Q04DX003 (ip), vehicle: steriod suspending solution 100 % of control | dose: 200.0 mg/kg/injection, schedule: Q01DX001 (ip), vehicle: steriod suspending solution 98 % of control | dose: 200.0 mg/kg/injection, schedule: Q04DX003 (ip), vehicle: steriod suspending solution 98 % of control | dose: 400.0 mg/kg/injection, schedule: Q01DX001 (ip), vehicle: steriod suspending solution 97 % of control | dose: 400.0 mg/kg/injection, schedule: Q04DX003 (ip), vehicle: steriod suspending solution 97 % of control

NC(=O)OCC(COC(N)=O)(c1ccccc1)c1ccccc1
inactive: dose: 45.0 mg/kg/injection, schedule: Q01DX001 (ip), vehicle: saline 101 % of control | dose: 67.0 mg/kg/injection, schedule: Q01DX001 (ip), vehicle: saline 95 % of control and 101 % of control | [7] 98 % of control | [11] 95 % of control and 104 % of control

FC(F)(F)c1cccc(NC(=S)N2CCOCC2)c1
inactive: [2] 98 % of control | dose: 200.0 mg/kg/injection, schedule: Q01DX009 (ip), vehicle: Klucel (hydroxypropylcellulose) (HPC) 104 % of control | dose: 400.0 mg/kg/injection, schedule: Q01DX009 (ip), vehicle: Klucel (hydroxypropylcellulose) (HPC) 96 % of control

Cc1ccccc1C1=CCCCCC1
inactive: [18] 93 % of control | [7] 93 % of control | [8] 98 % of control | [9] 107 % of control

CCCCCCC(C)C(COC(=O)c1ccc([N+](=O)[O-])cc1)NCC (configuration not stated)
inactive: [10] 93 % of control | [11] 96 % of control

NCCCOc1ccc([N+](=O)[O-])cc1
inactive: [18] 100 % of control | dose: 50.0 mg/kg/injection, schedule: Q01DX009 (ip), vehicle: saline 104 % of control and 109 % of control | [17] 95 % of control | [7] 101 % of control | [3] 102 % of control and 107 % of control | [4] 96 % of control and 89 % of control | [15] 114 % of control | [8] 100 % of control | [5] 100 % of control | [6] 93 % of control and 96 % of control | [16] 106 % of control
